Assay results taken from ChEMBL document CHEMBL1201862, “PubChem BioAssay data set” (2004).
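Cells were grown in 96-well plates and exposed to each compound for 48 hours at five concentrations; endpoints were interpolated linearly between bracketing concentrations, or set to the highest concentration if not reached. GI50 = concentration required for 50% inhibition of growth.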 Active and inactive are the calls of the source. No stated cut-off is given here; in the data, active = GI50 up to about 1.1 µM and inactive = higher.

How the values were obtained:
Assay in all cases: inhibition of tumour cell growth, NCI panel, 48 h
[1] = test system: MDA-N
[2] = test system: SNB-75
[3] = test system: RPMI-8226
[4] = test system: T47D
[5] = test system: NCI-H522
[6] = test system: CCRF-CEM
[7] = test system: HT-29
[8] = test system: SR
[9] = test system: MDA-MB-231
[10] = test system: 786-0
[11] = test system: SF-539
[12] = test system: Malme-3M
[13] = test system: SW-620
[14] = test system: HCT-15
[15] = test system: U-251
[16] = test system: SK-MEL-28
[17] = test system: A498
[18] = test system: LOX IMVI
[19] = test system: M14
[20] = test system: KM12

Measured: GI50

CCOc1ccc(N/C(Cl)=C(Cl)\C(=C(\Nc2ccc(OCC)cc2)n2nnc3ccccc32)[N+](=O)[O-])cc1
inactive: [1] 3.82 µM | [2] 18.3 µM | [3] 4.18 µM | [4] 4.47 µM | [6] 1.3 µM | [7] 1.75 µM | [8] 1.45 µM | [9] 6.08 µM | [10] 4.02 µM | [11] 4.2 µM | [12] 2.32 µM | [13] 2.32 µM | [15] 6.78 µM | [16] 7.83 µM | [17] 20.4 µM | [18] 1.65 µM | [19] 4.75 µM | [20] 19.1 µM
1.91 µM: [14]
active: [5] 1.08 µM

CC1(C)CCC2=C(O1)/C(=N\Nc1ccc(F)cc1)c1ccccc1C2=O
inactive: [1] 17.7 µM | [2] 22.2 µM | [3] 40.4 µM | [4] 17.3 µM | [5] 61.9 µM | [6] 11.8 µM | [7] 18.9 µM | [8] 21.9 µM | [9] 46.7 µM | [10] 32.4 µM | [11] 46.9 µM | [12] 30.6 µM | [13] 25.5 µM | [15] 31.5 µM | [16] 26.2 µM | [17] 30.3 µM | [18] 11.5 µM | [19] 20.1 µM | [20] 31.3 µM
43.6 µM: [14]

CC(C)Sc1nncc(/C(N)=N/O)n1
inactive: [1] > 100 µM | [2] > 100 µM | [3] > 100 µM | [4] > 100 µM | [5] > 100 µM | [6] > 100 µM | [7] > 100 µM | [8] > 100 µM | [9] > 100 µM | [10] > 100 µM | [11] > 100 µM | [12] > 100 µM | [13] > 100 µM | [15] > 100 µM | [16] > 100 µM | [17] > 100 µM | [18] > 100 µM | [19] > 100 µM | [20] 88.5 µM
> 100 µM: [14]

O=P1(Oc2ccccc2)N(CCCl)CCN1c1ccccc1 (stereo not given)
inactive: [1] > 100 µM | [2] 34.8 µM | [3] > 100 µM | [4] > 100 µM | [5] > 100 µM | [6] > 100 µM | [7] > 100 µM | [8] 79.3 µM | [9] 95.7 µM | [10] > 100 µM | [11] > 100 µM | [12] > 100 µM | [13] > 100 µM | [15] > 100 µM | [16] > 100 µM | [17] 55 µM | [18] > 100 µM | [19] > 100 µM | [20] > 100 µM
> 100 µM: [14]

C=CC(OC(C)=O)c1ccc(OC(=O)C(C)C)c(OC)c1 (stereo not given)
4.98 µM: [14]
inactive: [1] 5.22 µM | [2] 4.86 µM | [3] 1.82 µM | [4] 2.86 µM | [5] 1.54 µM | [6] 2.01 µM | [7] 2.31 µM | [8] 2.49 µM | [9] 4.72 µM | [10] 1.99 µM | [11] 9.4 µM | [12] 1.94 µM | [13] 2.6 µM | [15] 2.39 µM | [16] 11.1 µM | [17] 17.2 µM | [18] 1.95 µM | [19] 5.6 µM | [20] 2.67 µM

O=C(O)c1cc(-c2ccc3c(O)ccc(O)c3c2)ccc1O
inactive: [1] 16.7 µM | [2] 17 µM | [3] 4.78 µM | [4] 6.4 µM | [5] 15.3 µM | [6] 1.87 µM | [7] 18.8 µM | [8] 3.51 µM | [9] 23.2 µM | [10] 16.6 µM | [11] 16 µM | [12] 18.7 µM | [13] 5.82 µM | [15] 21.4 µM | [16] 18.1 µM | [17] 17.4 µM | [18] 11.5 µM | [19] 21.9 µM | [20] 20.3 µM
16.9 µM: [14]

COC1C(CO)OC(n2c3c(Cl)cccc3c3c4c(c5c6cccc(Cl)c6[nH]c5c32)C(=O)NC4=O)C(O)C1O (stereo not given)
0.401 µM: [14]
active: [1] 0.324 µM | [2] 0.234 µM | [3] 0.242 µM | [4] 0.154 µM | [5] 0.21 µM | [6] 0.0367 µM | [7] 0.244 µM | [8] 0.0282 µM | [9] 0.276 µM | [10] 0.133 µM | [11] 0.195 µM | [12] 0.223 µM | [13] 0.0849 µM | [15] 0.173 µM | [16] 0.337 µM | [17] 0.158 µM | [18] 0.116 µM | [19] 0.333 µM | [20] 0.614 µM

C=C1CC23CCC4C(C)(C(=O)O)CCCC4(C)C2CCC1C3 (stereo not given)
inactive: [1] 64 µM | [2] 47.8 µM | [3] 47.4 µM | [4] 38 µM | [5] 23.8 µM | [6] 25.1 µM | [7] 42.7 µM | [8] 33.3 µM | [9] 25.9 µM | [10] 40.6 µM | [11] 74 µM | [12] 94 µM | [13] 30.3 µM | [15] 48.1 µM | [16] > 100 µM | [17] 39.5 µM | [18] 30.7 µM | [19] 56 µM | [20] 41.6 µM
36.2 µM: [14]

O=C(/C=C/c1ccc(O)c(O)c1)c1ccc(O)cc1O [BUTEIN]
inactive: [1] 6.14 µM | [2] 11.1 µM | [3] 10.5 µM | [4] 14.4 µM | [5] 2.25 µM | [6] 3.75 µM | [7] 17.5 µM | [8] 7.1 µM | [9] 15.8 µM | [10] 12 µM | [11] 11.2 µM | [12] 13.9 µM | [13] 8.53 µM | [15] 9.25 µM | [16] 14.5 µM | [17] 17.7 µM | [18] 8.26 µM | [19] 16.3 µM | [20] 10.2 µM
16.3 µM: [14]

COc1cccc(/C=C2\CCC(CN(C)C)C2=O)c1 (stereo not given)
active: [3] 0.995 µM | [6] 1.08 µM
inactive: [1] 4.73 µM | [2] 17 µM | [4] 2.76 µM | [5] 2.56 µM | [7] 6.05 µM | [8] 1.69 µM | [9] 4.66 µM | [10] 3.5 µM | [11] 13.9 µM | [12] 5.81 µM | [13] 2.21 µM | [15] 12.3 µM | [16] 3.03 µM | [17] 16.3 µM | [18] 1.73 µM | [19] 3.6 µM | [20] 4.11 µM
2.58 µM: [14]
